Columns and labels:
[1] = test system: cord blood (CB) mononuclear cells (MNC); assay: R-BC154 (IXb) binding to cord blood mononuclear cell populations, flow cytometry; type: cell-based, human; settings: 1 mM Ca2+/Mg2+
Procedure: For in vitro labelling experiments, 5×10^6 BM cells from C57 mice, conditional α4^−/−/α9^−/− mice and humanised NODSCIDIL2Rγ^−/− mice and human cord blood MNCs were treated with R-BC154 (IXb) (up to 300 nM) in PBS (0.5% BSA) or TBS (0.5% BSA) containing either 1 mM CaCl2/MgCl2 (activating) or 10 mM EDTA (deactivating) at 40×10^6 cells/ml for 20 mins at 4° C. Cells were washed with cold PBS (2% FBS) and then immunolabelled as described in “Antibody Cocktails” prior to flow cytometric analysis. For in vivo experiments, C57BL/6 mice, α4^−/−/α9^−/− vav-cre mice and humanised NODSCIDIL2Rγ^−/− mice received either intravenous or subcutaneous injections of R-BC154 (IXb) (5-10 mg/kg) at 100 ul/10 gm mouse weight and analysed as described above.
(§1) For the assessment of α9β1 contribution to R-BC154 (IXb) binding, human and murine cells were stained with R-BC154 (100 nM) in the absence of competing antagonist or in the presence of excess amounts of the selective α4β1 antagonist BIO5192 (1 μM) or dual α4β1/α9β1 antagonist BOP (1 μM) in PBS containing 0.5% BSA and 1 mM CaCl2MgCl2 at 0° C. for 30 min. Cells were washed, immunolabelled as described above and analysed by flow cytometry. The contribution of α9β1 binding was calculated by measuring the difference in MFI between R-BC154 (IXb)+BIO5192 and +BOP and expressed as a % of R-BC154 (IXb) alone.

[2] = test system: progenitors (LSK) and HSC (LSKSLAM) in peripheral blood; assay: HSC mobilization to peripheral blood in mice; type: in vivo; settings: single agent, single dose
Procedure: For mobilization experiments, all mice received subcutaneous injections at 100 μl/10 gm body weight and PB was harvested by throat bleed using EDTA coated syringes.
(a) R-BC154 (IXb) and BOP. Mice received a single injection of freshly prepared solutions of R-BC154 (IXb) and BOP in saline at the doses indicated before PB was harvested by throat bleed at the times indicated.
(b) G-CSF. Mice received G-CSF at 250 μg/kg twice daily (500 ug/kg/day), 6-8 hours apart for 4 consecutive days. Groups receiving G-CSF and BOP received the standard G-CSF regime as described above followed by a single injection of BOP 1 h prior to harvest. Control mice received an equal volume of saline.
Mice received subcutaneous injections at 100 μl/10 gm body weight of a single injection of BOP (up to 15 mg/kg) for various timeframes, a single BIO5192 injection at 1 mg/kg for 1 hour, a single AMD3100 injection at 3 mg/kg for 1 hour (mice also receiving BOP or BIO15192 were injected with a single dose of BOP or BIO15192 1 hour prior to harvest), or G-CSF at 250 μg/kg twice daily (500 μg/kg/day), 6-8 hours apart for 4 consecutive days (mice also receiving BOP and/or AMD3100 were injected with a single dose of BOP and/or AMD3100 1 h prior to harvest). Control mice received an equivalent volume of saline or 10% HPβCD/saline where appropriate.

[3] = test system: HSC and progenitors isolated from human BM; assay: R-BC154 (IXb) binding to human BM cells; type: cell-based; settings: Ca2+/Mg2+
Procedure: as §1

[4] = test system: α4β1 or α9β1 LN18 cells; assay: Association and dissociation (off-rate) kinetics in vitro; type: binding, human
Procedure: Eppendorf vials containing α4β1 or α9β1 LN18 cells (0.5×10^6 cells) were treated with 50 nM of R-BC154 (IXb) (100 μl in TBS-2% FBS containing either 1 mM CaCl2—MgCl2 or 1 mM MnCl2 at 37° C. until for 30 min, washed once with the relevant binding buffer and dry pelleted. The cells were treated with 500 nM of an unlabelled competing inhibitor (100 μl, in TBS-2% FBS containing either 1 mM CaCl2—MgCl2 or 1 mM MnCl2) at 37° C. for the times indicated (0, 2.5, 5, 15, 30, 45, 60 min). The cells were diluted with cold TBS-2% FBS (containing the relevant cations), pelleted by centrifugation, washed once and resuspended (˜200 μl) in binding buffer for flow cytometric analysis. Mean channel fluorescence was plotted against time and the data was fitted to either a one-phase or two-phase exponential decay function using GraphPad Prism 6. The off-rate, koff was extrapolated from the curves.
Eppendorf vials containing α4β1 or α9β1 LN18 cells (0.5×10^6 cells) in 50 μl TBS-2% FBS containing either 1 mM CaCl2—MgCl2 or 1 mM MnCl2 were pre-activated in a heating block for 20 min at 37° C. […] Mean channel fluorescence was plotted against time and the data was fitted to either a one-phase or two phase association function using GraphPad Prism 6. The observed on-rate, kobs was extrapolated from the curves and kon was calculated using […]

In the case of CCN(CC)c1ccc2c(-c3ccc(S(=O)(=O)NCc4cn(C5C[C@@H](C(=O)N[C@@H](Cc6ccc(OC(=O)N7CCCC7)cc6)C(=O)O)N(S(=O)(=O)c6ccccc6)C5)nn4)cc3S(=O)(=O)[O-])c3ccc(=[N+](CC)CC)cc-3oc2c1 (stereo partly drawn) [R-BC154 (IXb)], the “binding to CB HSC (CD34+CD38−) and progenitors (CD34+CD38+)” value [1] is reported as “high”, the “binding to CB lineage committed cells (CD34−CD38+)” value [1] is reported as “modest” and the “increase in PB progenitors (LSK) and HSC (LSKSLAM)” value [2] is reported as “moderate increases”. For the same molecule, the “binding to HSC and progenitors isolated from human BM” value [3] was “efficiently bound”, the “off-rates for α9β1 compared to α4β1” value [4] was “significantly reduced off-rates” and the “binding affinities relative to BOP” value ([4]; association and dissociation kinetics studies in vitro) was “lower binding affinities”.
